{
  "source": "patent US11707474B2",
  "about": "“Methods for treating acute myeloid leukemia and related conditions” (GlycoMimetics, Inc., priority 2018, dated 2023)",
  "key": {"KG1": {"tested_on": "KG1", "assay": "Flow cytometry, binding of E-selectin-PE conjugate to KG1 cells", "assay_type": "cell-based, human", "conditions": "100 nM", "from_the_text": "(§1) These findings indicate that hypomethylating agents, including 5-azacytidine, may increase the adhesion of leukemic blasts in the bone marrow and therefore hinder the intended anti-leukemic effect. This could explain a source of chemoresistance, and potential for relapse, in patients treated with hypomethylating agents."}, "KG1 cells [1]": {"tested_on": "KG1 cells", "assay": "Static adhesion of KG1 cells to E-selectin coated plates", "assay_type": "cell-based, human", "conditions": "compared to control treated KG1 cells", "from_the_text": "as §1"}, "KG1 cells [2]": {"tested_on": "KG1 cells", "assay": "Systemic KG1 AML model survival", "assay_type": "in vivo, NSG female mice", "conditions": "5 mg/kg IP days 7, 10, 13, 16, 19 alone", "experimental": "The potential relevance of these in vitro observations was assessed in NSG female mice with pre-existing disseminated KG1 cells and treated with a compound of Formula (I) (40 mg/kg, IP, QD for 14 days), 5-azacytidine (5 mg/kg, IP, administered on days 7, 10, 13, 16, and 19 (5 doses total)), or the combination of both compounds. Under the conditions of the assay, the median survival time of mice treated with saline alone or a compound of Formula (I) was 69.5 and 69 days, respectively (FIG. 9). Administration of a compound of Formula (I) with 5-azacytidine increased median survival time beyond that obtained with 5-azacytidine treatment alone (>104 days versus 88 days; P=0.014, FIG. 9)."}},
  "data": [
    {"smiles": "Nc1ncn([C@@H]2O[C@H](CO)[C@@H](O)[C@H]2O)c(=O)n1", "note": "[5-azacytidine, reference compound]", "values": [
      {"measurement": "increase in cell binding of E-selectin-PE conjugate", "setting": "KG1", "value": 38, "unit": "%"},
      {"measurement": "increase in static adhesion to E-selectin coated plates", "setting": "KG1 cells [1]", "value": 57, "unit": "%"},
      {"measurement": "median survival time", "setting": "KG1 cells [2]", "value": 88, "unit": "days"}
    ]}
  ]
}
